Read-outs that look alike come from different tables or passages of the source.
Tests used:
[1] = test system: B78-D14 m.12,436^60% cells; test: Cell sensitivity to inhibitors (IC50 from final confluency, IncuCyte); assay type: cell-based, mouse; conditions: for IC50: Mus musculus
Description: (§1) Cells were plated in a 96-well plate at 500 cells/well in 200 μL of cell culture media. Plates were incubated overnight at 37° C. and 5% CO2. The following day, media was replaced with 0-100 mM 2-DG in quadruplicate. Plates were imaged once every 4 hrs on the IncuCyte Zoom (Essen Bioscience) for 5 days. Final confluency measurements were calculated using the system algorithm and the IC50 was determined by GraphPad Prism.

[2] = test system: B78-D14 m.12,436^80% cells; test: as above; assay type: cell-based, mouse; conditions: for IC50: Mus musculus
Description: as §1

[3] = test system: B78-D14 m.11,944^60% cells; test: as above; assay type: cell-based, mouse; conditions: for IC50: Mus musculus
Description: as §1

B78-D14 wild-type cells = test: as above; assay type: cell-based; conditions: Mus musculus
Description: as §1

metastatic melanoma [4] = test: Response of metastatic melanoma patient cohort (Riaz et al.) to nivolumab, stratified by tumour mtDNA mutation status; assay type: in vivo, human
Source text: Mutation calls and calculated heteroplasmy were used to assign patients to mtDNA wildtype, <50% VAF or >50% VAF groups.

metastatic melanoma [5] = conditions: of the 15 responders; cited from earlier work
Hcmel12 tumours = test: Manipulation of tumour-associated neutrophils with G-CSF or anti-Ly6G, with or without anti-PD1, in Hcmel12 tumours; assay type: in vivo, mouse
Description: To determine if neutrophil depletions were necessary for observed sensitivity to ICB, the inventors chose to manipulate the proportion of tumour-associated neutrophils using G-CSF and anti-Ly6G treatments. Hcmel12 wild-type, m.12,436^83% and cytoLbNOX cells were allografted into C57BL/6 mice and were put on G-CSF or anti-Ly6G treatment with or without antiPD1 (FIG. 43A).
For immunotherapy experiments, mice were put on a dosing regimen of 200 μg of anti-PD1 given intraperitoneally twice a week. The first dose was given 7 days post-injection and all mice were sacrificed at 21 or 13 days post-injection for B78 or HcMel12 cells respectively. Either 5 μg mouse recombinant G-CSF (Stemcell) or 100 μg anti-mouse Ly6G—clone 1A8 (2B Scientific) was given intraperitoneally every 2 days post-engraftment to mice for neutrophil depletion experiments.

[6] = m.12,436^60% cells, read-out: IC50
[7] = m.12,436^80% cells, read-out: IC50
[8] = wild-type cells, read-out: IC50
[9] = printed as mt.11944^80%, read-out: IC50

| IC50 [1, 6] [µM] | IC50 [2, 7] [µM] | IC50 (B78-D14 wild-type cells; [8]) [µM] | Molecule | sensitivity compared with wild-type cells ([1]; m.12,436^60% cells) | sensitivity compared with wild-type cells ([2]; m.12,436^80% cells) | sensitivity compared with wild-type cells ([3]; m.11,944^60% cells) | IC50 [3, 9] [µM] | also measured |
| --- | --- | --- | --- | --- | --- | --- | --- | --- |
| 810 | 460 | 1620 | O=CC[C@@H](O)[C@H](O)[C@H](O)CO [2-DG, 2-deoxyglucose] | more sensitive | further enhanced | more sensitive | – | IC50 ([3]; m.11,944^60% cells, read-out: IC50): 1040 µM |
| 16600 ± 2430 | 5890 ± 710 | 26300 ± 1490 | CN(C)C(=N)N=C(N)N [metformin] | enhanced sensitivity | enhanced sensitivity | enhanced sensitivity | 22900 ± 700 | – |
| – | – | – | C=C(C)[C@H]1Cc2c(ccc3c2O[C@@H]2COc4cc(OC)c(OC)cc4[C@@H]2C3=O)O1 [rotenone] | not differentially sensitive | resistance compared to wild type | not differentially sensitive | – | IC50 [1]: 0.235 ± 0.035 µM; IC50 [2]: 0.493 ± 0.108 µM; IC50 [3]: 0.205 ± 0.033 µM; IC50 (B78-D14 wild-type cells): 0.236 ± 0.026 µM |
| – | – | – | nivolumab | – | – | – | – | tumours responding (metastatic melanoma [4]; <50% VAF tumours): 17%; tumours responding (metastatic melanoma [4]; >50% VAF tumours): 40%; likelihood to respond, >50% VAF tumours versus mtDNA wild-type or low VAF tumours (metastatic melanoma [4]; Example 1 analysis): 2.5 ×; rate of response of >50% VAF cancers versus wild-type or <50% VAF cancer (metastatic melanoma [4]; Example 2 analysis): 2.6 fold; cohort response rate, partial or complete responses (metastatic melanoma [4]; mtDNA mutation status-naive cohort, 70 patients): 22%; complete responders categorised as >50% VAF (metastatic melanoma [4]; out of the 3 complete responders): 2; complete responses (metastatic melanoma [5]): 3; partial responses (metastatic melanoma [5]): 12 |
| – | – | – | G-CSF: mouse recombinant G-CSF (Stemcell) (protein, UniProt P09920 31-208, looked up) Granulocyte …: VPLVTVSALPPSLPLPRSFLLKSLEQVRKIQASGSVLLEQLCATYKLCHPEELVLLGHSLGIPKASLSGCSSQALQQTQCLSQLHSGLCLYQGLLQALSGISPALAPTLDLLQLDVANFATTIWQQMENLGVAPTVQPTQSAMPAFTSAFQRRAGGVLAISYLQGFLETARLALHHLA | – | – | – | – | tumour-associated neutrophil proportions (Hcmel12 tumours; across genotypes): increases; sensitivity of tumours to anti-PD1 (Hcmel12 tumours; m.12,436^83% and cytoLbNOX tumours, G-CSF plus anti-PD1): abolished sensitivity; tumour weight versus untreated tumours at the same end-point (Hcmel12 tumours; without anti-PD1): did not affect tumour weight |

| Molecule | IC50 [1, 6] [µM] | IC50 [2, 7] [µM] | IC50 (B78-D14 wild-type cells; [8]) [µM] | sensitivity compared with wild-type cells ([1]; m.12,436^60% cells) | sensitivity compared with wild-type cells ([2]; m.12,436^80% cells) | sensitivity compared with wild-type cells ([3]; m.11,944^60% cells) | IC50 [3, 9] [µM] | also measured |
| --- | --- | --- | --- | --- | --- | --- | --- | --- |
| CC[C@H]1/C=C/C=C/C[C@@H](C)[C@H](O)[C@@](C)(O)C(=O)[C@@H](C)[C@H](O)[C@@H](C)C(=O)[C@@H](C)[C@H](O)[C@@H](C)/C=C/C(=O)O[C@@H]2[C@H](C)[C@H](CC1)O[C@]1(CC[C@H](C)[C@H](C[C@@H](C)O)O1)[C@H]2C [oligomycin] | – | – | 13.8 ± 3.8 | None of the mutants demonstrated differential sensitivity | None of the mutants demonstrated differential sensitivity | None of the mutants demonstrated differential sensitivity | 13.5 ± 3.32 | IC50 ([1]; mt.12436^60% cells, read-out: IC50): 13.5 ± 3.32 µM; IC50 ([2]; mt.12436^80% cells, read-out: IC50): 7.75 ± 0.56 µM |

Source: US20260263567A1, “TUMOUR SENSITISATION TO CHECKPOINT INHIBITORS WITH REDOX STATUS MODIFIER” (CANCER RESEARCH TECHNOLOGY LIMITED, priority 2022, published 2026)
